The record followed here is patent US8853412B2, “Pyrrolidinone derivatives as GPR119 modulators for the treatment of diabetes, obesity, dyslipidemia and related disorders” (Sanofi, priority 2012, dated 2014).

Each structure is given as a SMILES string.

In the assay the target is T1, human GPR119 (Homo sapiens, UniProt Q8TDV5).
T1 construct: expressed in transfected cells; host or cells: HEK-293 cell line stably expressing recombinant GPR119
T1 sequence (Q8TDV5 1-335): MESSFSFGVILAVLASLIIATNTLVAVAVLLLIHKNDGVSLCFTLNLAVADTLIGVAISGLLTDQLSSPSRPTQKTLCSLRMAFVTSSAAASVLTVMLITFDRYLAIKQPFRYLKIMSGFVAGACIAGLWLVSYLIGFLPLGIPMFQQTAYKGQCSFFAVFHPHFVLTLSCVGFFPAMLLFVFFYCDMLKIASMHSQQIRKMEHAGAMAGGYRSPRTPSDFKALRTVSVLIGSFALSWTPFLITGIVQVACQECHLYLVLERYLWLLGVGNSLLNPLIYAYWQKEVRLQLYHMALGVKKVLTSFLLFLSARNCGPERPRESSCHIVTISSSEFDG
Description: Functional cellular assay measuring GPR119-mediated cAMP release (HTRF), HEK-293 cells stably expressing recombinant GPR119. In kind it is cell-based. As to conditions: cell line expressing human GPR119; cAMP response, 30 minutes at room temperature. On the procedure: Functional Cellular Assays Measuring GPR119-Mediated cAMP Release.
Compounds of the invention, which are agonists of GPR119, were characterized by functional assays measuring the cAMP response of HEK-293 cell lines stably expressing recombinant GPR119 from man, mouse or rat, or by using a hamster cell line HIT-T15 expressing GPR119 endogenously. The cAMP content was determined using a kit based on homogenous time-resolved fluorescence (HTRF) from Cisbio Corp. (cat. no. 62AM4PEC). For preparation, cells were split into T175 culture flasks and grown to near confluency in medium (DMEM/10% FCS for HEK-293 cells, and F-12K medium/10% horse serum/2.5% FCS for HIT-T15 cells, respectively). Medium was then removed and cells washed with PBS lacking calcium and magnesium ions, followed by proteinase treatment with accutase (Sigma-Aldrich, cat. no. A6964). Detached cells were washed and resuspended in assay buffer (1×HBSS; 20 mM HEPES, 0.1% BSA, 2 mM IBMX) and cellular density determined. They were then diluted to 400000 cells/mL and 25 μL-aliquots dispensed to the wells of 96-well plates. For measurement, 25 μL of test compound in assay buffer was added and incubated for 30 minutes at room temperature. After addition of HTRF reagents diluted in lysis buffer, the plates were incubated for 1 hour, followed by measuring the fluorescence ratio at 665 vs. 620 nm. Potency of the agonists was quantified by determining the concentrations that caused 50% of the maximal response/activation (EC50). See Table 10 for exemplary data obtained using the cell line expressing human GPR119.
For orientation: TR-FRET usually uses a lanthanide donor and a delayed reading to cut background.
For orientation: EC50 means the midpoint of the concentration-response curve. Take `CCOc1ccc(O[C@@H]2CCN(c3cc(F)c4c(c3)C(=O)CC4)C2=O)cn1` [Example 2-08, (R)-3-(6-Ethoxy-pyridin-3-yloxy)-1-(7-fluoro-3-oxo-indan-5-yl)-pyrrolidin-2-one]: the EC50 was determined as 0.017 µM.

`O=C1CCc2c(F)cc(N3CC[C@@H](Oc4ccc(OCCN5CCCC5=O)nc4)C3=O)cc21` [Example 2-56]: the EC50 worked out at 9.3 µM.

For `O=C1CCc2c(F)cc(N3CC[C@@H](Oc4ccc(OC[C@H]5CCCO5)nc4)C3=O)cc21` [Example 2-74], the EC50 was 0.084 µM.

In the case of `O=C1CCc2c(F)cc(N3CC[C@@H](Oc4ccc(OCc5cccnc5)nc4)C3=O)cc21` [Example 2-31], the 50% effective concentration (EC50) came to 1.47 µM.

As for `O=C1CCc2c(F)cc(N3CC[C@@H](Oc4ccc(O[C@@H]5CCOC5)nc4)C3=O)cc21` [Example 2-76], the EC50 worked out at 0.094 µM.

On to `CCOc1ccc(O[C@H]2CCN(c3cc(F)c4c(c3)C(=O)CC4)C2=O)cn1` [Example 3-21], for which the concentration giving a half-maximal response (EC50) worked out at 1.98 µM.

As to `O=C1CCc2c(F)cc(N3CC[C@@H](Oc4ccc(OC5CCC(O)C5)nc4)C3=O)cc21` (stereo partly drawn) [Example 2-19], the EC50 was found to be 0.858 µM.

For the compound `CC(C)Oc1cc(O[C@@H]2CCN(c3cc(F)c4c(c3)C(=O)CC4)C2=O)ccn1` [Example 5-08], the EC50 came to 0.072 µM.

Turning to `Cc1cc(N2CC[C@@H](Oc3ccc(OCC4CC4)nc3)C2=O)cc2c1CCC2=O` [Example 4-02], the EC50 was determined as 0.283 µM.

As to `N#Cc1cc(O[C@@H]2CCN(c3cc(F)c4c(c3)C(=O)CC4)C2=O)cnc1OCC1CC1` [Example 8-05], the EC50 worked out at 0.242 µM.

`CC(Oc1ccc(O[C@@H]2CCN(c3cc(F)c4c(c3)C(=O)CC4)C2=O)cn1)C1CC1` (stereo partly drawn) [Example 2-09]: the EC50 was 0.016 µM.

On to `CCCCSc1ccc(O[C@@H]2CCN(c3cc(F)c4c(c3)C(=O)CC4)C2=O)cn1` [Example 3-07], for which the 50% effective concentration (EC50) is 0.011 µM.

For `O=C1CCc2c(Cl)cc(N3CC[C@@H](Oc4ccc(OCC5CC5)nc4)C3=O)cc21` [Example 4-01], the 50% effective concentration (EC50) stood at 0.064 µM.

As for `CC(C)CCOc1ccc(O[C@@H]2CCN(c3cc(F)c4c(c3)C(=O)CC4)C2=O)cn1` [Example 2-22], the EC50 is 0.009 µM.

In the case of `CC(=O)N1CCCC(Oc2ccc(O[C@@H]3CCN(c4cc(F)c5c(c4)C(=O)CC5)C3=O)cn2)C1` (stereo partly drawn) [Example 2-70], the EC50 turned out to be 3.01 µM.

Take `COCCOc1ccc(O[C@@H]2CCN(c3cc(F)c4c(c3)C(=O)CC4)C2=O)cn1` [Example 2-13]: the EC50 came to 0.141 µM.

As for `O=C1CCCc2ccc(N3CC[C@@H](Oc4ccc(OCCC5CC5)nc4)C3=O)cc21` [Example 1-10], the EC50 was 0.699 µM.

`CCC(CC)Oc1ccc(O[C@@H]2CCN(c3cc(F)c4c(c3)C(=O)CC4)C2=O)cn1` [Example 2-64]: the EC50 came out at 0.054 µM.

Turning to `O=C1CCc2c(F)cc(N3CC[C@@H](Oc4ccc(OC5CCOCC5)nc4)C3=O)cc21` [Example 2-07, (R)-1-(7-Fluoro-3-oxo-indan-5-yl)-3-[6-(tetrahydro-pyran-4-yloxy)-pyridin-3-yloxy]-pyrrolidin-2-one], the EC50 stood at 0.045 µM.

Take `O=C1CCc2c(F)cc(N3CC[C@@H](Oc4ccc(OCC5CC5)[n+]([O-])c4)C3=O)cc21` [Example 7-01]: the EC50 is 5.59 µM.

Turning to `O=C1CCc2c(F)cc(N3CC[C@@H](Oc4ccc(OCC(F)F)nc4)C3=O)cc21` [Example 2-35], the EC50 was found to be 0.026 µM.

As for `O=C1CCc2c(F)cc(N3CC[C@@H](Oc4ccc(SC5CC5)nc4)C3=O)cc21` [Example 3-16], the EC50 came to 0.019 µM.

`O=C(OCC1CC1)c1ccc(O[C@@H]2CCN(c3cc(F)c4c(c3)C(=O)CC4)C2=O)cn1` [Example 3-04]: the EC50 was 0.138 µM.

On to `N#Cc1cc(N2CC[C@@H](Oc3ccc(OCC4CC4)nc3)C2=O)cc2c1CCC2=O` [Example 4-03], for which the EC50 stood at 0.097 µM.

As to `CO[C@@H](C)COc1ccc(O[C@@H]2CCN(c3cc(F)c4c(c3)C(=O)CC4)C2=O)cn1` [Example 2-69], the EC50 worked out at 0.029 µM.

As to `O=C1CCc2c(F)cc(N3CC[C@@H](Oc4ccc(OC5CCCOC5)nc4)C3=O)cc21` (stereo partly drawn) [Example 2-79], the EC50 was found to be 0.064 µM.

As to `COc1ccc(O[C@@H]2CCN(c3cc(F)c4c(c3)C(=O)CC4)C2=O)cn1` [Example 2-01], the EC50 was determined as 0.223 µM.

Regarding `CC(C)CCCc1ccc(O[C@@H]2CCN(c3cc(F)c4c(c3)C(=O)CC4)C2=O)cn1` [Example 3-14], the EC50 was found to be 0.081 µM.

On to `O=C1CCc2ccc(N3CC[C@@H](Oc4ccc(OCC5CC5)nc4)C3=O)c(F)c21` [Example 9-03], for which the EC50 turned out to be 0.046 µM.

Consider `CC(C)COc1ccc(O[C@@H]2CCN(c3cc(F)c4c(c3)C(=O)CC4)C2=O)cn1` [Example 2-23], for which the EC50 is 0.007 µM.

For `O=C1CCc2c(F)cc(N3CC[C@@H](Oc4ccc(OCCn5cccn5)nc4)C3=O)cc21` [Example 2-21], the EC50 came to 0.456 µM.

In the case of `O=C1CCc2c(F)cc(N3CC[C@@H](Oc4ccc(OCCCF)nc4)C3=O)cc21` [Example 2-61], the EC50 is 0.015 µM.

As for `O=C1CCc2c(F)cc(N3CC[C@@H](Oc4ccc(OC5CC5)nc4)C3=O)c(F)c21` [Example 9-02], the 50% effective concentration (EC50) was 0.069 µM.

For `CC(C)Oc1ccc(O[C@@H]2CCN(c3cc(F)c4c(c3)C(=O)CC4)C2=O)cn1` [Example 2-24, (R)-1-(7-Fluoro-3-oxo-indan-5-yl)-3-(6-isopropoxy-pyridin-3-yloxy)-pyrrolidin-2-one], the EC50 amounted to 0.013 µM.

For `CCOCC(C)Oc1ccc(O[C@@H]2CCN(c3cc(F)c4c(c3)C(=O)CC4)C2=O)cn1` (stereo partly drawn) [Example 2-51], the 50% effective concentration (EC50) was 0.077 µM.

Regarding `O=C1CCc2c(F)cc(N3CC[C@@H](Oc4ccc(OC5CCC5)nc4)C3=O)cc21` [Example 2-72], the EC50 is 0.016 µM.

For `COC(C)CCOc1ccc(O[C@@H]2CCN(c3cc(F)c4c(c3)C(=O)CC4)C2=O)cn1` (stereo partly drawn) [Example 2-33], the EC50 turned out to be 0.071 µM.

For the compound `CC(C)(CO)COc1ccc(O[C@@H]2CCN(c3cc(F)c4c(c3)C(=O)CC4)C2=O)cn1` [Example 2-04], the EC50 came out at 0.233 µM.

Take `O=C1CCc2c(F)cc(N3CC[C@@H](Oc4ccc(-c5ncc(CO)s5)nc4)C3=O)cc21` [Example 1-16]: the EC50 is 3.81 µM.

`O=C1CC[C@@H](COc2ccc(O[C@@H]3CCN(c4cc(F)c5c(c4)C(=O)CC5)C3=O)cn2)N1` [Example 2-30]: the EC50 amounted to 16.3 µM.

As to `O=C1CCc2c(F)cc(N3CC[C@@H](Oc4ccc(OCc5ccccc5)nc4)C3=O)cc21` [Example 1-17], the EC50 is 0.039 µM.

Consider `O=C1CCc2c(F)cc(N3CC[C@H](Oc4ccc(OCCC5CC5)nc4)C3=O)cc21` [Example 3-11], for which the EC50 is 0.258 µM.

In the case of `O=C1CCc2c(F)cc(N3CC[C@@H](Oc4ccnc(OCC(F)(F)F)c4)C3=O)cc21` [Example 5-07], the EC50 worked out at 0.03 µM.

On to `O=C1CCc2c(F)cc(N3CC[C@@H](Oc4ccc(OCCCCCO)nc4)C3=O)cc21` [Example 2-65], for which the EC50 came out at 2.38 µM.

`CC1(COc2ccc(O[C@@H]3CCN(c4cc(F)c5c(c4)C(=O)CC5)C3=O)cn2)COC1` [Example 2-12]: the concentration giving a half-maximal response (EC50) amounted to 0.099 µM.

On to `O=C1CCc2c(F)cc(N3CC[C@@H](Oc4ccc(OC5CCCCC5)nc4)C3=O)cc21` [Example 2-66], for which the 50% effective concentration (EC50) turned out to be 0.016 µM.

For `CC(C)Oc1ccc(O[C@H]2CCN(c3cc(F)c4c(c3)C(=O)CC4)C2=O)cn1` [Example 3-20], the EC50 amounted to 1.05 µM.

Consider `O=C1CCc2c(F)cc(N3CC[C@@H](Oc4ccc(OC5CC5)nc4)C3=O)cc21` [Example 3-13, (R)-3-(6-Cyclopropoxy-pyridin-3-yloxy)-1-(7-fluoro-3-oxo-indan-5-yl)-pyrrolidin-2-one], for which the EC50 was determined as 0.019 µM.

Turning to `CCCC(C)Oc1ccc(O[C@@H]2CCN(c3cc(F)c4c(c3)C(=O)CC4)C2=O)cn1` (stereo partly drawn) [Example 2-06], the EC50 amounted to 0.018 µM.

On to `O=C1CCc2c(F)cc(N3CC[C@@H](Oc4ccc(Oc5ccc(F)cn5)nc4)C3=O)cc21` [Example 6-01], for which the EC50 is 0.216 µM.

In the case of `CCCOc1cc(O[C@@H]2CCN(c3cc(F)c4c(c3)C(=O)CC4)C2=O)ccn1` [Example 5-05], the EC50 was found to be 0.065 µM.

`O=C1CCc2c(F)cc(N3CC[C@@H](Oc4cnc(OCC5CC5)c(Br)c4)C3=O)cc21` [Example 3-19]: the concentration giving a half-maximal response (EC50) worked out at 0.012 µM.

In the case of `O=C1CCc2c(F)cc(N3CC[C@@H](Oc4ccc(OCCC5CC5)nc4)C3=O)cc21` [Example 1-08, (R)-3-[6-(2-Cyclopropyl-ethoxy)-pyridin-3-yloxv]-1-(7-fluoro-3-oxo-indan-5-yl)-pyrrolidin-2-one], the EC50 was 0.008 µM.

For `CCCC[S+]([O-])c1ccc(O[C@@H]2CCN(c3cc(F)c4c(c3)C(=O)CC4)C2=O)cn1` (stereo partly drawn) [Example 3-08], the EC50 is 0.558 µM.
